Values after ≈ are worked out from the molar mass of the structure shown. Active and inactive are the calls of the source. The rule behind the calls is not given here.
How the values were obtained:
Mus musculus [1] = assay: Inhibition of Hsp90 in human COLO205 cells xenografted in mouse assessed as Her2 degradation at 100 mg/kg administered QD for 2 days measured 8 hrs post-last dose; assay type: functional; details: COLO 205
[2] = Drug uptake in human COLO205 tumor xenografted in mouse at 100 mg/kg administered QD for 2 days measured 8 hrs post-last dose; assay type: ADME, organism-based, Neoplasm; parameters: dose 100 mg/kg; details: human COLO205 tumor xenograft, read-out: Drug uptake
Mus musculus [3] = assay: Inhibition of Hsp90 in human COLO205 cells xenografted in mouse assessed as Raf1 degradation at 100 mg/kg administered QD for 2 days measured 8 hrs post-last dose; assay type: functional; details: COLO 205
[4] = Half life in rat at 5 mg/kg, iv; assay type: ADME, organism-based; parameters: dose 5 mg/kg, route intravenous; details: in vivo
[5] = Oral bioavailability in rat at 5 mg/kg; assay type: ADME, organism-based; details: in vivo
Rattus norvegicus = assay: Dose normalized AUC in rat at 5 mg/kg, iv; assay type: ADME, organism-based; parameters: dose 5 mg/kg, route intravenous; details: in vivo
[6] = Clearance in rat at 5 mg/kg, iv; assay type: ADME, organism-based; parameters: dose 5 mg/kg, route intravenous; details: in vivo
[7] = Apparent permeability across MDCK cells; assay type: ADME, cell-based, Canis lupus familiaris; details: dog
[8] = Kinetic solubility of the compound; assay type: physicochemical; details: read-out: Kinetic_solubility
[9] = Drug metabolism in human liver microsomes at 15 uM after 30 mins; assay type: ADME, Microsome; details: read-out: Drug metabolism
[10] = Drug metabolism in mouse liver microsomes at 15 uM after 30 mins; assay type: ADME, Microsome; details: read-out: Drug metabolism
Heat shock protein HSP90 [11] = target: T1, Heat shock protein HSP90 (Homo sapiens, UniProt P07900+P08238); assay: Inhibition of Hsp90 in human A549 cells assessed as Raf1 degradation after 24 hrs by Western blot analysis; assay type: cell-based
Heat shock protein HSP90 [12] = target: T1, Heat shock protein HSP90; assay: Displacement of biotinylated geldanamycin from human His-tagged Hsp90 by TR-FRET assay; assay type: protein assay
BT-474 = assay: Antiproliferative activity against human BT474 cells overexpressing Her2 after 48 hrs by BrdU labeling assay; assay type: functional, cell-based; details: BT-474, 48 h
MDA-MB-453 = assay: Antiproliferative activity against human MDA-MB-453 cells overexpressing Her2 after 48 hrs by BrdU labeling assay; assay type: functional, cell-based; details: MDA-MB-453, 48 h
NCI-N87 [13] = assay: Antiproliferative activity against human NCI-N87 cells overexpressing Her2 after 48 hrs by BrdU labeling assay; assay type: functional, cell-based; details: NCI-N87, 48 h
Heat shock protein HSP90 [14] = target: T1, Heat shock protein HSP90; assay: Inhibition of Hsp90 in human NCI-N87 cells assessed as Her2 degradation after 24 hrs by Western blot analysis; assay type: cell-based
NCI-N87 [15] = assay: Antitumor activity against human NCI-N87 cells xenografted in mouse assessed as tumor regression at 100 mg/kg administered QD for 3 days in a week relative to control; assay type: functional
NCI-N87 [16] = assay: Antitumor activity against human NCI-N87 cells xenografted in mouse assessed as tumor growth inhibition at 100 mg/kg administered QD for 3 days in a week relative to control; assay type: functional; details: NCI-N87, 72 h, read-out: TGI
NCI-N87 [17] = assay: Antitumor activity against human NCI-N87 cells xenografted in mouse assessed as tumor growth inhibition at 60 mg/kg administered QD relative to control; assay type: functional; details: read-out: TGI
Plasma = assay: Plasma concentration in mouse xenografted with human NCI-N87 cells at 100 mg/kg administered QD for 3 days measured 96 hrs post-last dose; assay type: ADME, organism-based; parameters: dose 100 mg/kg; details: in vivo, BLD = below limit of detection
[18] = Plasma concentration in mouse xenografted with human NCI-N87 cells at 100 mg/kg administered QD for 3 days measured 24 hrs post-last dose; assay type: ADME, organism-based; parameters: dose 100 mg/kg
[19] = Plasma concentration in mouse xenografted with human NCI-N87 cells at 100 mg/kg administered QD for 3 days measured 8 hrs post-last dose; assay type: ADME, organism-based; parameters: dose 100 mg/kg
[20] = Drug uptake in human NCI-N87 tumor xenografted in mouse at 100 mg/kg administered QD for 3 days measured at 96 hrs post-last dose; assay type: ADME, organism-based, Neoplasm; parameters: dose 100 mg/kg; details: human NCI-N87 tumor xenograft, read-out: Drug uptake
[21] = Drug uptake in human NCI-N87 tumor xenografted in mouse at 100 mg/kg administered QD for 3 days measured at 24 hrs post-last dose; assay type: ADME, organism-based, Neoplasm; parameters: dose 100 mg/kg; details: human NCI-N87 tumor xenograft, read-out: Drug uptake
[22] = Drug uptake in human NCI-N87 tumor xenografted in mouse at 100 mg/kg administered QD for 3 days measured at 8 hrs post-last dose; assay type: ADME, organism-based, Neoplasm; parameters: dose 100 mg/kg; details: human NCI-N87 tumor xenograft, read-out: Drug uptake
Mus musculus [23] = assay: Inhibition of Hsp90 in human NCI-N87 cells xenografted in mouse assessed as Hsp70 upregulation at 100 mg/kg administered QD for 3 days measured at 96 hrs post-last dose relative to control; assay type: functional
Mus musculus [24] = assay: Inhibition of Hsp90 in human NCI-N87 cells xenografted in mouse assessed as Hsp70 upregulation at 100 mg/kg administered QD for 3 days measured at 8 hrs post-last dose relative to control; assay type: functional
Mus musculus [25] = assay: Inhibition of Hsp90 in human NCI-N87 cells xenografted in mouse assessed as Her2 degradation at 100 mg/kg administered QD for 3 days measured up to 48 hrs post-last dose relative to control; assay type: functional
Mus musculus [26] = assay: Inhibition of Hsp90 in human NCI-N87 cells xenografted in mouse assessed as Raf1 degradation at 100 mg/kg administered QD for 3 days measured after 8 hrs post-last dose relative to control; assay type: functional, organism-based; parameters: dose 100 mg/kg
Mus musculus [27] = assay: Inhibition of Hsp90 in human NCI-N87 cells xenografted in mouse assessed as Raf1 degradation at 100 mg/kg administered QD for 3 days measured at 8 hrs post-last dose relative to control; assay type: functional
Mus musculus [28] = assay: Inhibition of Hsp90 in human NCI-N87 cells xenografted in mouse assessed as Her2 degradation at 100 mg/kg administered QD for 3 days measured at 8 hrs post-last dose relative to control; assay type: functional
MCF7 = assay: Antiproliferative activity against human MCF7 cells overexpressing PI3K after 48 hrs by BrdU labeling assay; assay type: functional, cell-based; details: MCF7, 48 h
A549 = assay: Antiproliferative activity against human A549 cells overexpressing Kras after 48 hrs by BrdU labeling assay; assay type: functional, cell-based; details: A549, 48 h
NCI-H1975 = assay: Antiproliferative activity against human NCI-H1975 cells overexpressing EGFR after 48 hrs by BrdU labeling assay; assay type: functional, cell-based; details: NCI-H1975, 48 h
SK-MEL-28 = assay: Antiproliferative activity against human SK-MEL-28 cells overexpressing Braf after 48 hrs by BrdU labeling assay; assay type: functional, cell-based; details: SK-MEL-28, 48 h
COLO 205 = assay: Antiproliferative activity against human COLO205 cells overexpressing Braf after 48 hrs by BrdU labeling assay; assay type: functional, cell-based; details: COLO 205, 48 h
MKN-45 = assay: Antiproliferative activity against human MKN45 cells overexpressing MET after 48 hrs by BrdU labeling assay; assay type: functional, cell-based; details: MKN-45, 48 h
HN5 = assay: Antiproliferative activity against human HN5 cells overexpressing EGFR after 48 hrs by BrdU labeling assay; assay type: functional, cell-based; details: HN5, 48 h

**Q.** Which results are given for `COc1cccc(C(=O)NC2CC3CCC(C2)N3c2ccc(C(N)=O)cn2)c1C` (centres undefined)?
**A.** inhibition in vivo at 100 mg/kg (Mus musculus [1]): 63%; concentration at 8 h [2]: 6700 nM; inhibition (Mus musculus [3]): inactive; half-life [4]: 2.1 h; bioavailability [5]: 81%; AUC/dose (Rattus norvegicus): 6.3 µM·kg·h/mg; clearance [6]: 6.15 mL/min/kg; Papp [7]: 13.3 ×10⁻⁶ cm/s; solubility kinetic [8]: 470 µM (≈ 185 µg/mL); metabolised at 0.5 h, 15 µM [9]: 21%; metabolised at 0.5 h, 15 µM [10]: 29%; IC50 (Heat shock protein HSP90 [11]): 3800 nM; IC50 (Heat shock protein HSP90 [12]): 641 nM

**Q.** For `CC[C@@H](C)Nc1cc(C(=O)NC2CC3CCC(C2)N3c2ccc(C(=O)C3CC3)cn2)c(C)cc1C(N)=O` (some centres undefined), which IC50 (BT-474) is on record?
**A.** 0.1 nM

**Q.** What about the IC50 (MDA-MB-453) of the same compound?
**A.** 16 nM

**Q.** And the IC50 (NCI-N87 [13])?
**A.** 21.8 nM

**Q.** What about the IC50 (Heat shock protein HSP90 [14]) of the same compound?
**A.** 56 nM

**Q.** And the half-life [4]?
**A.** 1.4 h

**Q.** What about the bioavailability [5] of the same compound?
**A.** 30%

**Q.** And the AUC/dose (Rattus norvegicus)?
**A.** 2.23 µM·kg·h/mg

**Q.** And the clearance [6]?
**A.** 15.3 mL/min/kg

**Q.** What about the Papp [7] of the same compound?
**A.** 32 ×10⁻⁶ cm/s

**Q.** And the Activity (NCI-N87 [15])?
**A.** 21%

**Q.** What about the inhibition in vivo at 100 mg/kg (NCI-N87 [16]) of the same compound?
**A.** > 100%

**Q.** And the inhibition in vivo at 60 mg/kg (NCI-N87 [17])?
**A.** 100%

**Q.** What about the Cp (Plasma) of the same compound?
**A.** BLD

**Q.** What about the concentration at 24 h [18] of the same compound?
**A.** 70 nM

**Q.** And the concentration at 8 h [19]?
**A.** 2260 nM

**Q.** And the concentration at 96 h [20]?
**A.** 1820 nM

**Q.** What about the concentration at 24 h [21] of the same compound?
**A.** 2860 nM

**Q.** And the concentration at 8 h [22]?
**A.** 5390 nM

**Q.** And the inhibition in vivo at 100 mg/kg (Mus musculus [23])?
**A.** 343%

**Q.** What about the inhibition in vivo at 100 mg/kg (Mus musculus [24]) of the same compound?
**A.** 234%

**Q.** And the inhibition in vivo at 100 mg/kg (Mus musculus [25])?
**A.** 75%

**Q.** And the inhibition (Mus musculus [26])?
**A.** inactive

**Q.** What about the inhibition in vivo at 100 mg/kg (Mus musculus [27]) of the same compound?
**A.** 56%

**Q.** And the inhibition in vivo at 100 mg/kg (Mus musculus [28])?
**A.** 92%

**Q.** What about the IC50 (MCF7) of the same compound?
**A.** 4.1 nM

**Q.** What about the IC50 (A549) of the same compound?
**A.** 4.3 nM

**Q.** What about the IC50 (NCI-H1975) of the same compound?
**A.** 0.7 nM

**Q.** What about the IC50 (SK-MEL-28) of the same compound?
**A.** 0.3 nM

**Q.** What about the IC50 (COLO 205) of the same compound?
**A.** 11.6 nM

**Q.** And the IC50 (MKN-45)?
**A.** 45.5 nM

**Q.** And the IC50 (HN5)?
**A.** 5.5 nM

From ChEMBL document CHEMBL2203134, “Discovery of XL888: a novel tropane-derived small molecule inhibitor of HSP90” (Bioorg Med Chem Lett, 2012)
